Experimental data taken from US6620828B2, “Thiazole compounds and pharmaceutical compositions for inhibiting protein kinases and methods for their use” (Agouron Pharmaceuticals, Inc., priority 1999, dated 2003).
Several values for one entry are separate records, joined by “and”; a condition that tells them apart may be missing. Equal entries are not always repeated. Where two headings read alike, the source gives them in different places. Blank lines part the entries; values can stand above or below the compound they belong to.

Key:
CHK1 = biological target: T1, CHK1 (Homo sapiens, UniProt O14757); experiment: CHK1 high-throughput screening; assay type: biochemical; details: for % inhibition @ 20 μM: Table 4, repeated entries per example; for inhibition at 20 µM: read-out: % inhibition @ 20 μM, Table 4, repeated entries per example
T1 sequence (O14757 1-476): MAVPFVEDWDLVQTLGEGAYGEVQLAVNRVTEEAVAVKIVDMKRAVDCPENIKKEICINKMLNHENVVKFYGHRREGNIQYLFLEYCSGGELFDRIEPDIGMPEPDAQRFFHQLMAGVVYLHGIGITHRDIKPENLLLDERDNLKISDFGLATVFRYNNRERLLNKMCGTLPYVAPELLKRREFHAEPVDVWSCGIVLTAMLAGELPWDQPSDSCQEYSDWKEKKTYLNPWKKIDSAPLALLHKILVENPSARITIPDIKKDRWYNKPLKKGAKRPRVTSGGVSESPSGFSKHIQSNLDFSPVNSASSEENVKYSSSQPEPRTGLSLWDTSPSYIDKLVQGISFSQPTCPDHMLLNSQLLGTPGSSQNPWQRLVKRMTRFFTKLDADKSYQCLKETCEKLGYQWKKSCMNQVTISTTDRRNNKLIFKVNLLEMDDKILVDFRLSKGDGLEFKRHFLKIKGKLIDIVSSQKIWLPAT

[1] = biological target: T2, phosphorylated VEGF-R2Δ50 (Homo sapiens, UniProt P35968, DEL940-989/E990V); experiment: VEGF-R2 ELISA assay; assay type: biochemical; details: * determined with ELISA assay, read-out: FLVK-P Ki
T2 construct: VEGF-R2Δ50 contains residues 806-939 and 990-1171; made in house; host or cells: baculovirus/insect cells
From the text: VEGF-R2 Construct for Assay: This construct determines the ability of a test compound to inhibit tyrosine kinase activity. A construct (VEGF-R2Δ50) of the cytosolic domain of human vascular endothelial growth factor receptor 2 (VEGF-R2) lacking the 50 central residues of the 68 residues of the kinase insert domain was expressed in a baculovirus/insect cell system. Of the 1356 residues of full-length VEGF-R2, VEGF-R2Δ50 contains residues 806-939 and 990-1171, and also one point mutation (E990V) within the kinase insert domain relative to wild-type VEGF-R2. Autophosphorylation of the purified construct was performed by incubation of the enzyme at a concentration of 4 μM in the presence of 3 mM ATP and 40 mM MgCl2 in 100 mM Hepes, pH 7.5, containing 5% glycerol and 5 mM DTT, at 4° C. for 2 h. […] See Parast et al., Biochemistry, 37, 16788-16801 (1998).
Formation of phosphogastrin was monitored using biotinylated gastrin peptide (1-17) as substrate. Biotinylated phosphogastrin was immobilized using streptavidin coated 96-well microtiter plates followed by detection using anti-phosphotyrosine-antibody conjugated to horseradish peroxidase. The activity of horseradish peroxidase was monitored using 2,2′-azino-di-[3-ethylbenzathiazoline sulfonate(6)]diammonium salt (ABTS). Typical assay solutions contained: 2 μM biotinylated gastrin peptide; 5 mM DTT; 20 μM ATP; 26 mM MgCl2; and 2 mM MnCl2 in 200 mM Hepes, pH 7.5. The assay was initiated with 0.8 nM of phosphorylated VEGF-R2Δ50. Horseradish peroxidase activity was assayed using ABTS, 10 mM. The horseradish peroxidase reaction was quenched by addition of acid (H2SO4), followed by absorbance reading at 405 nm. Ki values were determined by measuring enzyme activity in the presence of varying concentrations of test compounds. The data were analyzed using Enzyme Kinetic and Kaleidagraph software.

CDK4/Cyclin D3 complex = biological target: T3, CDK4/Cyclin D3 complex (Homo sapiens, UniProt P11802); experiment: CDK4/Cyclin D assay; assay type: biochemical; details: for CDK4 % inhibition @ 10: at 10 (head μM)
T3 construct: made in house; host or cells: insect cells co-infected with baculovirus vectors
Procedure, shortened: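 Insect-cell-expressed CDK4/cyclin D3 (50 nM) phosphorylating His-tagged Rb fragment (residues 386-928) with 25 μM [^32P]ATP in HEPES pH 7.4, MgCl2, 2% DMSO; 20 min at 30 °C, EDTA stop. Filter-captured 32P by phosphorimager; apparent Ki from competitive or tight-binding inhibition fits.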

CDK2/Cyclin A complex = CDK2/Cyclin A complex (Homo sapiens, UniProt P24941); experiment: CDK2/Cyclin A assay; assay type: biochemical; details: for CDK2 % inhibition @ 10: at 10 (head μM)
Procedure, shortened: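 Radiometric assay: 150 nM CDK2/cyclin A (insect-cell CDK2, truncated cyclin A) phosphorylates His-tagged Rb fragment (residues 386-928) with 25 μM ATP plus [32P]ATP, pH 7.4 HEPES, 2% DMSO, 30 °C for 20 min. Filter-captured product counted by phosphorimager; apparent Ki from competitive or tight-binding inhibition fits.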

[2] = biological target: T4, phosphorylated VEGF-R2Δ50 (FLVK-P) (Homo sapiens, UniProt P35968, DEL940-989/E990V); experiment: VEGF-R2 coupled spectrophotometric (FLVK-P) assay; assay type: biochemical; details: spectrophotometric assay
T4 construct: VEGF-R2Δ50 contains residues 806-939 and 990-1171; made in house; host or cells: baculovirus/insect cells
Procedure, shortened: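 Baculovirus-expressed human VEGF-R2Δ50 (residues 806-939/990-1171, E990V) was autophosphorylated with 3 mM ATP, 40 mM MgCl2 for 2 h at 4° C. ADP formation was coupled via PK/LDH to NADH oxidation, read at 340 nm, with 5.1 mM poly(E4Y1), 1 mM ATP, 25 mM MgCl2, Hepes pH 7.5. Ki came from activity across compound concentrations.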

FL-CHK1 = biological target: T5, FL-CHK1 (Homo sapiens, UniProt O14757); experiment: CHK1 assay; assay type: biochemical; details: Table 2; at 5 (head μM)
T5 construct: C-terminally His-tagged full-length human CHK1 (FL-CHK1); 6xHis (C); made in house; host or cells: baculovirus/insect cells
T5 sequence (O14757 1-476): T1 sequence (O14757 1-476)
Procedure, shortened: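 Full-length human CHK1 with C-terminal 6×His tag, made in baculovirus/insect cells, 10 nM, phosphorylating 0.125 mM Syntide-2 with 0.15 mM ATP in 50 mM Tris pH 7.5, 25 mM MgCl2, 400 mM NaCl. PK/LDH-coupled NADH oxidation read at 340 nm. Ki from initial rates over varied compound concentrations.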

[3] = biological target: T6, unphosphorylated VEGF-R2Δ50 (FLVK) (Homo sapiens, UniProt P35968, DEL940-989/E990V); experiment: VEGF-R2 coupled spectrophotometric assay, unphosphorylated enzyme (FLVK); assay type: biochemical; details: Table 1
T6 construct: VEGF-R2Δ50 contains residues 806-939 and 990-1171; made in house; host or cells: baculovirus/insect cells
Procedure, shortened: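 Unphosphorylated VEGF-R2Δ50 (5 to 40 nM) with 20 mM poly(E4Y1), 3 mM ATP, 60 mM MgCl2, 2 mM MnCl2 in 200 mM Hepes pH 7.5. ADP production coupled via PK/LDH to NADH oxidation, read at 340 nm. Ki from activity at varying compound concentrations.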

FGF-R1 = biological target: T7, FGF-R1 (Homo sapiens, UniProt P11362, C488A/C584S/L457V); experiment: FGF-R spectrophotometric assay; assay type: biochemical; details: Table 2
T7 construct: starting from the endogenous methionine residue 456 to glutamate 766; made in house; host or cells: baculovirus vector expression system
Procedure: FGF-R1 Construct for Assay: The intracellular kinase domain of human FGF-R1 was expressed using the baculovirus vector expression system starting from the endogenous methionine residue 456 to glutamate 766, according to the residue numbering system of Mohammadi et al., Mol. Cell. Biol., 16, 977-989 (1996). In addition, the construct also has the following 3 amino acid substitutions: L457V, C488A, and C584S.
The spectrophotometric assay was carried out as described above for VEGF-R2, except for the following changes in concentration: FGF-R=50 nM, ATP=2 mM, and poly(E4Y1)=15 mM.

T3 sequence (P11802 whole entry): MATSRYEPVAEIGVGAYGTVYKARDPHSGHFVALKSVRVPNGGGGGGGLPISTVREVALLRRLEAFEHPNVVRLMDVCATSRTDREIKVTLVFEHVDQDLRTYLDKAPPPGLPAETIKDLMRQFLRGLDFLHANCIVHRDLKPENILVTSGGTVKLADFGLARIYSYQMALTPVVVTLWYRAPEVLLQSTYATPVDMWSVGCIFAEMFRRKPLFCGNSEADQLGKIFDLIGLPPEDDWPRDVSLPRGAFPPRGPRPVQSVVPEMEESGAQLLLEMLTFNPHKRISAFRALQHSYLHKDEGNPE
T3 sequence (P30281 whole entry partner): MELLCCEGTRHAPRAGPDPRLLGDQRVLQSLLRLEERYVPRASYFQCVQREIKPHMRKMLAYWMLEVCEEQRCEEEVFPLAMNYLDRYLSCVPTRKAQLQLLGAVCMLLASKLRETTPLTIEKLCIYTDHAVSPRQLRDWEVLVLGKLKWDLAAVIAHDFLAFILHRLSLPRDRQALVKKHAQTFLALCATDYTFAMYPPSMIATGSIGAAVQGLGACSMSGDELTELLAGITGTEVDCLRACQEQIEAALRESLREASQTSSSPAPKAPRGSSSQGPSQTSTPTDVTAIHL
T4 sequence (P35968 with tags, fused parts or gaps DEL940-989/E990V limits assumed): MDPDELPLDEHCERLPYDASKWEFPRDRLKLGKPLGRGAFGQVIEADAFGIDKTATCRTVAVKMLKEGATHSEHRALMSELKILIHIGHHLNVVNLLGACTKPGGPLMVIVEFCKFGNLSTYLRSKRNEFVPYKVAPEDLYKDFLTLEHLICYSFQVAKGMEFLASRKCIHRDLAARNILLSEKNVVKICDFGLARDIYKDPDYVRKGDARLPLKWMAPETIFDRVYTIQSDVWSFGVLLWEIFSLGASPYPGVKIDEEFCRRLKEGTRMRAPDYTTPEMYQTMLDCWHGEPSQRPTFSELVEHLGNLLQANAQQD
T2 sequence (P35968 with tags, fused parts or gaps DEL940-989/E990V limits assumed): as above
T7 sequence (P11362 456-766 L457V/C488A/C584S): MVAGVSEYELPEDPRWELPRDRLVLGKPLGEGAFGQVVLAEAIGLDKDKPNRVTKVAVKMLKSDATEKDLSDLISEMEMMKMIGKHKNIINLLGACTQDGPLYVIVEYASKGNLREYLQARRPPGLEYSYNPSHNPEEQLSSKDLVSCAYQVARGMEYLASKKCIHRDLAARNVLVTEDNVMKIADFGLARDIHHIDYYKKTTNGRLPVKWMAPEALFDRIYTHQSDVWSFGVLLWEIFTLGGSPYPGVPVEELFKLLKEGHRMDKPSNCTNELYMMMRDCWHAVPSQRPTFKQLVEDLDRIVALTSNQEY
T6 sequence (P35968 with tags, fused parts or gaps DEL940-989/E990V limits assumed): as the sequence (P35968 with tags, fused parts or gaps DEL940-989/E990V limits assumed) above

% inhibition @ 20 μM (CHK1): 49.8%
inhibition at 20 µM (CHK1): 36.6%
Ki ([1]; Table 2): 1400 nM
melting point: 233 to 235 °C (dec.)
Ki (CDK4/Cyclin D3 complex; Table 2): 4600 nM
SMILES: Nc1nc(Nc2ccc(S(N)(=O)=O)cc2)sc1-c1nc(-c2ccccc2)cs1 [A(1), 4-(4′-Amino-4-phenyl-[2,5′]bithiazolyl-2′-ylamino)-benzenesulfonamide]

% inhibition @ 20 μM (CHK1): 2.6% and 7.6%
Ki ([1]; Table 2): 2900 nM
Ki (CDK2/Cyclin A complex; Table 2): 1800 nM
melting point: 195 to 198 °C
Ki (CDK4/Cyclin D3 complex; Table 2): 7300 nM
SMILES: COc1ccc(-c2csc(-c3sc(Nc4ccc(S(N)(=O)=O)cc4)nc3N)n2)cc1 [A(2), 4-[4′-Amino-4-(4-methoxy-phenyl)-[2,5′]bithiazolyl-2′-ylamino]-benzenesulfonamide]

CDK2 % inhibition @ 10 (CDK2/Cyclin A complex; Table 2): 57% @
melting point: 233 to 238 °C
CDK4 % inhibition @ 10 (CDK4/Cyclin D3 complex; Table 2): 42% @
SMILES: Nc1nc(Nc2ccc(S(N)(=O)=O)cc2)sc1-c1nc(-c2ccc(F)cc2F)cs1 [A(4), 4-[4′-Amino-4-(2,4-difluoro-phenyl)-[2,5′]bithiazolyl-2′-ylamino]-benzenesulfonamide]

CDK2 % inhibition @ 10 (CDK2/Cyclin A complex; Table 2): 27% @
melting point: 254 to 257 °C
CDK4 % inhibition @ 10 (CDK4/Cyclin D3 complex; Table 2): 30% @
SMILES: Nc1nc(Nc2ccc(S(N)(=O)=O)cc2)sc1-c1nc(-c2ccc(F)cc2)cs1 [A(5), 4-[4′-Amino-4-(4-fluoro-phenyl)-[2,5′]bithiazolyl-2′-ylamino]-benzenesulfonamide]

CDK2 % inhibition @ 10 (CDK2/Cyclin A complex; Table 2): 36% @
melting point: 173 to 175 °C (dec.)
CDK4 % inhibition @ 10 (CDK4/Cyclin D3 complex; Table 2): 54% @
SMILES: Nc1nc(Nc2ccc(S(N)(=O)=O)cc2)sc1-c1nc(-c2ccc(Cl)cc2Cl)cs1 [A(6), 4-[4′-Amino-4-(2,4-dichloro-phenyl)-[2,5′]bithiazolyl-2′-ylamino]-benzenesulfonamide]

CDK2 % inhibition @ 10 (CDK2/Cyclin A complex; Table 2): 25% @
melting point: 208 to 212 °C
CDK4 % inhibition @ 10 (CDK4/Cyclin D3 complex; Table 2): 28% @
SMILES: Cc1c(F)cc(-c2csc(-c3sc(Nc4ccc(S(N)(=O)=O)cc4)nc3N)n2)cc1Cl [A(7), 4-[4′-Amino-4-(3-chloro-5-fluoro-4-methyl-phenyl)-[2,5′]bithiazolyl-2′-ylamino]-benzenesulfonamide]

Ki ([1]; Table 2): 1900 nM
Ki (CDK2/Cyclin A complex; Table 2): 3100 nM
melting point: 145 to 148 °C (dec.)
Ki (CDK4/Cyclin D3 complex; Table 2): 7000 nM
SMILES: Cc1sc(-c2sc(Nc3ccc(S(N)(=O)=O)cc3)nc2N)nc1-c1ccc(F)cc1 [A(14), 4-[4′-Amino-4-(4-fluoro-phenyl)-5-methyl-[2,5′]bithiazolyl-2′-ylamino]-benzenesulfonamide]

inhibition at 20 µM (CHK1): 35.4%
Ki ([1]; Table 2): 22 nM
Ki (CDK2/Cyclin A complex; Table 2): 220 nM
melting point: 205 to 209 °C (dec.)
Ki (CDK4/Cyclin D3 complex; Table 2): 980 nM
SMILES: Nc1nc(Nc2ccc(S(N)(=O)=O)cc2)sc1-c1nc(-c2cccc(O)c2)cs1 [A(16), 4-[4′-Amino-4-(3-hydroxy-phenyl)-[2,5′]bithiazolyl-2′-ylamino]-benzenesulfonamide]

Ki ([2]; Table 2): 21 nM
inhibition at 20 µM (CHK1): 7.5%
CHK-1 % inhibition @ 5 (FL-CHK1): 54% @
melting point: 235 to 238 °C
SMILES: COc1cc(Nc2nc(N)c(-c3nc(-c4ccc(Cl)c(O)c4)cs3)s2)cc(OC)c1OC [A(22), 5-[4′-Amino-2′-(3,4,5-trimethoxy-phenylamino)-[2,5′]bithiazolyl-4-yl]-2-chloro-phenol]

Ki (CDK2/Cyclin A complex; Table 2): 2700 nM
melting point: 185 to 187 °C (dec.)
SMILES: Nc1nc(Nc2ccc(S(N)(=O)=O)cc2)sc1-c1nc(-c2cc(O)cc(OCc3ccccc3)c2)cs1 [A(61), 4-[4′-Amino-4-(3-benzyloxy-5-hydroxy-phenyl)-[2,5]bithiazolyl-2′-ylamino]-benzenesulfonamide]

% inhibition @ 20 μM (CHK1): 3.8% and 5.4% and 9.8%
Ki (CDK2/Cyclin A complex; Table 2): 2000 nM
melting point: 140 to 143 °C (dec.)
Ki (CDK4/Cyclin D3 complex; Table 2): 20000 nM
SMILES: Nc1nc(Nc2ccc(S(N)(=O)=O)cc2)sc1-c1nc(/C=C/c2ccccc2)cs1 [A(63), 4-(4′-Amino-4-styryl-[2,5′]bithiazolyl-2′-ylamino)-benzenesulfonamide]

% inhibition @ 20 μM (CHK1): 1.1% and 7.2% and 8.3%
Ki (CDK2/Cyclin A complex; Table 2): 520 nM
melting point: 138 to 140 °C (dec.)
SMILES: Nc1nc(Nc2ccc(S(N)(=O)=O)cc2)sc1-c1nc(/C=C/c2ccc(O)cc2)cs1 [A(64), 4-{4′-Amino-4-[2-(4-hydroxy-phenyl)-vinyl]-[2,5′]bithiazolyl-2′-ylamino}-benzenesulfonamide]

Ki ([1]; Table 1): 300 nM
melting point: 205 to 210 °C (dec.)
SMILES: COc1cc(Nc2nc(N)c(-c3nc(-c4cccc(N)c4)cs3)s2)cc(OC)c1OC [C(1)]

Ki ([2]; Table 1): 390 nM
melting point: 159 to 163 °C (dec.)
Ki [3]: 38 nM
SMILES: Nc1nc(N)c(-c2nc(-c3cccc(NC(=O)c4ccccc4)c3)cs2)s1 [E(2), N-[3-(2 ′,4′-Diamino-[2,5′]bithiazolyl-4-yl)-phenyl]benzamide]

Ki ([2]; Table 2): 100 nM
Ki (FGF-R1): 22000 nM
SMILES: COc1cc(Nc2nc(N)c(C3=NC(c4ccccc4)CO3)s2)cc(OC)c1OC (stereo not drawn) [I(6), S-5-(4-Phenyl-4,5-dihydro-oxazol-2-yl)-N^2-(3,4,5-trimethoxyl-phenyl)-thiazole-2,4-diamine]

Ki (CDK2/Cyclin A complex; Table 3): 100 nM
melting point: 195 to 198 °C
Ki (CDK4/Cyclin D3 complex; Table 3): 1100 nM
SMILES: CON(C)C(=O)c1csc(-c2sc(Nc3ccc(S(N)(=O)=O)cc3)nc2N)n1 [N(3), 4′-Amino-2′-(4-sulfamoyl-phenylamino)-[2,5′]bithiazolyl-4-carboxylic acid methoxy-methyl-amide]
